What is called IC50 is the concentration that inhibits the measured activity by half. High values mean lower potency, low ones higher potency.

Values after ≈ are worked out from the molar mass of the structure shown.

The subject of experiment [1] is Platelet aggregation induced with PAF. Nature of the experiment: Test 1: inhibition of PAF-induced platelet aggregation in platelet rich plasma. The experiment is classed as cell-based, Japanese white rabbit. Conditions: Oryctolagus cuniculus, rabbit PRP, 5×10^5 cells/mm^3, final concentration of PAF usually 20 nM. The method, then: (Inhibition of platelet aggregation)
Blood was collected through the polyethylene catheter introduced into the carotid artery of male Japanese white rabbit (2.5 to 3 kg body weight). The blood was anticoagulated with 1 volume of 3.8% sodium citrate to 9 volume of blood. Platelet rich plasma (PRP) was prepared by centrifugation of the blood at 150 g for 10 minutes at room temperature. The PRP was diluted with platelet poor plasma obtained by further centrifugation of the blood at 1,000 g for 20 minutes. The platelet number was 5×10^5 cells/mm^3. Platelet aggregation induced with PAF was measured by the nephelometric technique of Born and Cross [cf. Journal of Physiology 168, 178-188 (1963)] using HKK Hema tracer (trade name, made by Niko Bioscience Inc.).
Activities of inhibitors were expressed as IC50 value, i.e. concentrations required to inhibit the platelet aggregation response by 50%. The final concentration of PAF was usually 20 nM.

Experiment [2] concerns synthetic PAF induced hypotension. Nature of the experiment: Test 2: inhibition of hypotensive effect induced by intravenously injected PAF in rats. Type of experiment: in vivo, Sprague-Dowley rats. Conditions: 3 minutes before PAF (1 μg/kg i.v.), anesthetized rats. The protocol:
(Inhibition of hypotensive effect induced by intraveneously injected PAF in rats)
Seven-week old Sprague-Dowley rats were anesthetized with urethane (1 g/kg, i. p.). Catheters were introduced into the femoral artery and vein for the measurement of arterial pressure and the administration of the test compound, respectively. Blood pressure was recorded from femoral artery using a transducer coupled to the Biophysiograph 180 System (San-Ei Instrument Co., Ltd.). Inhibitory activity of the test compound was shown in the following Table as the inhibition percentage of the synthetic PAF induced hypotension. PAF was administered intravenously at a dose of 1 μg/kg. The test compound was administered intravenously 3 minutes before PAF injection.

In experiment [3] the test system is vascular permeability increase induced by intradermally injected PAF. Nature of the experiment: Test 3: inhibition of vascular permeability increase induced by intradermally injected PAF in mice (test compound i.p.). Type of experiment: in vivo, ddY mice. Conditions: 10 mg/kg i.p., 15 minutes before Evans blue; PAF 50 ng intradermally; 30 minutes after PAF. The method, then:
(§1) (Inhibition of vascular permeability increase induced by intradermally injected PAF in mice)
Six-week old male ddY mice were used. The test compound was administered intraperitoneally 15 minutes before the Evans blue injection (0.125% solution in saline, 0.2 ml/mouse, i.v.).
PAF (50 ng, 50 μl per size) was injected intradermally to the depilated back of the mice 5 minutes after the Evans blue injection.
(§2) The inhibitory activity of the test compound was monitored 30 minutes after the PAF injection by assessment of blueing reaction with Evans blue dye in mice skin.

Experiment [4] has the same test system. The experiment can be described thus: Test 4: inhibition of vascular permeability increase induced by intradermally injected PAF in mice (test compound orally). The experiment is classed as in vivo, ddY mice. The conditions noted are these: 100 mg/kg orally, 30 minutes before Evans blue; PAF 50 ng intradermally; 30 minutes after PAF. The protocol: as §1
Five-week old male ddY mice were used. The test compound suspended in 0.5 methylcellulose suspension was administered orally 30 minutes before the Evans blue injection (0.125% solution in saline, 10 ml/kg, i.v.).
PAF (50 ng, 50 μl per site) was injected intradermally to the depilated back of the mice 5 minutes after the Evans blue injection.
as §2

`CSCC[C@H]1NC(=O)[C@@H]([C@@H](C)c2cccc3ccccc23)NC1=O` [Test compound 12] came in with a half-inhibitory concentration (IC50) in experiment [1] of 0.65 µg/mL (≈ 1.9 µM).

`CSCC[C@H]1NC(=O)[C@@H](Cc2cn(C)c3ccccc23)NC1=O` [Example 1, (3R,6R)-3-(1-methylindol-3-ylmethyl)-6-(2-methylthioethyl)piperazine-2,5-dione] displayed an IC50 in experiment [1] of 0.71 µg/mL (≈ 2.14 µM).

In turn, `CSCC[C@@H]1C(=O)N(C)[C@H]([C@H](C)c2cccc3ccccc23)C(=O)N1C` [Test compound 16] had a concentration for half-maximal inhibition (IC50) in experiment [1] of 0.59 µg/mL (≈ 1.59 µM).

In experiment [1], `CC(C)C[C@H]1NC(=O)[C@@H](Cc2cn(C)c3ccccc23)NC1=O` [Test compound 2] yielded an IC50 of 1.04 µg/mL (≈ 3.32 µM). Besides, the “Inhibition maximum (%) of hypotensive effect” value in experiment [2] (10 mg/kg i.v.) came out at 75%. Further, the “Inhibition of vascular permeability increase (%)” value in experiment [3] is 30%.

Consider `CCCC[C@H]1NC(=O)[C@@H](Cc2cn(C)c3ccccc23)NC1=O` [Test compound 8], for which half-maximal inhibition in experiment [1] (IC50) required 0.58 µg/mL (≈ 1.85 µM).

Regarding `CSCC[C@H]1NC(=O)[C@@H](Cc2c(-c3ccccc3)n(C)c3ccccc23)NC1=O` [Test compound 13], in experiment [1], the IC50 stood at 0.72 µg/mL (≈ 1.77 µM).

For the compound `C[C@H](c1cn(C)c2ccccc12)[C@H]1NC(=O)[C@@H](Cc2ccccn2)NC1=O` [Example 18, (3R,6R)-3-[(R)-1-(1-methylindol-3-yl)ethyl]-6-(2-pyridylmethyl)piperazine-2,5-dione], the IC50 in experiment [1] worked out at 0.16 µg/mL (≈ 0.441 µM). For the same compound, in experiment [4], the “Inhibition of vascular permeability increase (%)” value came to 56.7%.

Consider `CCC[C@H]1NC(=O)[C@@H](Cc2cn(C)c3ccccc23)NC1=O` [Test compound 14], for which the midpoint of inhibition in experiment [1], the IC50, lay at 0.93 µg/mL (≈ 3.11 µM).

On to `CSCC[C@@H]1C(=O)N(C)[C@H](Cc2cn(C)c3ccccc23)C(=O)N1C` [Example 4, (3R,6R)-1,4-dimethyl-3-(1-methylindol-3-ylmethyl)-6-(2-methylthioethyl)piperazine-2,5-dione], for which the IC50 in experiment [1] turned out to be 0.84 µg/mL (≈ 2.34 µM).

In experiment [1], `CSCC[C@H]1NC(=O)[C@@H](Cc2c3ccccc3cc3ccccc23)NC1=O` [Test compound 11] gave an IC50 of 0.58 µg/mL (≈ 1.53 µM).

In the case of `Cn1cc(C[C@H]2NC(=O)[C@@H](Cc3cn(C)c4ccccc34)NC2=O)c2ccccc21` [Test compound 7], half-maximal inhibition in experiment [1] (IC50) was put at 1.2 µg/mL (≈ 3 µM).

On to `CSCC[C@H]1NC(=O)[C@@H]([C@H](C)c2cccc3ccccc23)NC1=O` [Test compound 9], for which the IC50 in experiment [1] is 0.061 µg/mL (≈ 0.178 µM). In addition, the “Inhibition maximum (%) of hypotensive effect” value in experiment [2] (3 mg/kg i.v.) was 51%. In experiment [3], the “Inhibition of vascular permeability increase (%)” value came out at 40%.

Take `CSCC[C@H]1NC(=O)[C@@H](Cc2cccc3ccccc23)NC1=O` [Test compound 10]: the half-maximal inhibitory concentration (IC50) in experiment [1] was 0.48 µg/mL (≈ 1.46 µM).

`CSCCCC1NC(=O)[C@@H](Cc2cn(C)c3ccccc23)NC1=O` (single isomer, unassigned) [Test compound 5] registered a half-maximal inhibitory concentration (IC50) in experiment [1] of 0.55 µg/mL (≈ 1.59 µM).

The record behind these values is patent US4806538A, “Piperazine compound as PAF-antagonist” (Fujisawa Pharmaceutical Co., Ltd., priority 1984, dated 1989).
